Measurements from BindingDB's records for doi:10.1016/S0960-894X(00)80622-8 (1992).

assay: Compound was evaluated for inhibition against Phospholipase A2 of Croatalus adamanteus

IC50	SMILES
> 1000 µM	O=C(/C=C\N(O)C1CCCCC1)c1ccc(F)cc1
> 1000 µM	CON(/C=C\C(=O)c1ccc(F)cc1)Cc1ccccc1 [(Z)-3-(Benzyl-methoxy-amino)-1-(4-fluoro-phenyl)-propenone]
> 1000 µM	CC(=O)ON(C=CC(=O)c1ccc(F)cc1)Cc1ccccc1 [1-(4-fluorophenyl)-3-benzyl-3-acetyloxyamino-propenone]
